The values that follow come from patent publication US20040234480A1, “Use of oligomeric proanthrocyanidins” (priority 2001, published 2004).

Assay [1] in a line: Method A: diphenylpicrylhydrazyl free radical, optical density at 513 nm. Particulars: DPPH radical. The text has this: Method A In a first method, use was made of diphenylpicrylhydrazyl (DPPH^o), a relatively stable free radical which produces a purple-colored solution. The parameter determined was the optical density (DO) at 513 nm. The results are summarized in Table 1; in each case the EC50 values are given in % (w/v).

The next assay concerns the target Xanthin oxidase (Homo sapiens, UniProt P47989). The assay is described as follows: Method D: Xanthin oxidase, superoxide anion by NBT reduction, optical density at 490 nm. The format is biochemical. The text has this:
Method D Xanthin oxidase is an enzyme which is released as a result of oxidative stress and catabolizes the degradation of the purine bases adenine and guanine into […] and superoxide anions. The latter dismutate spontaneously or in the presence of superoxide dismutase into hydrogen peroxide and oxygen.
The amount of superoxide anion can be determined by NBT reduction via the optical density at 490 nm. It was investigated whether fewer superoxide anions are generated or more anions are destroyed in the presence of the test substances.
(§1) The results are summarized in Table 1; in each case the EC50 values are given in % (w/v).

A short description of assay [2]: Method B: hydroxyl radicals from hydrogen peroxide with iron(II) ions and EDTA, deoxyribose oxidation. The text has this: Method B In the presence of iron(II)ions and EDTA, hydroxyl radicals were liberated from hydrogen peroxide and used for the oxidation of deoxyribose. The oxidation product forms a pink-colored compound with thiobarbituric acid. Its concentration corresponds to the optical density at 532 nm. It was investigated whether less deoxyribose is oxidized, i.e. fewer free radicals are liberated, in the presence of the test products. The results are summarized in Table 1; in each case the EC50 values are given in % (w/v).

Assay [3] in a line: Method C: deoxyribose oxidation in the absence of EDTA (inactive iron complexes).
Description: as §1

Xanthin oxidase, sequence (P47989 whole entry): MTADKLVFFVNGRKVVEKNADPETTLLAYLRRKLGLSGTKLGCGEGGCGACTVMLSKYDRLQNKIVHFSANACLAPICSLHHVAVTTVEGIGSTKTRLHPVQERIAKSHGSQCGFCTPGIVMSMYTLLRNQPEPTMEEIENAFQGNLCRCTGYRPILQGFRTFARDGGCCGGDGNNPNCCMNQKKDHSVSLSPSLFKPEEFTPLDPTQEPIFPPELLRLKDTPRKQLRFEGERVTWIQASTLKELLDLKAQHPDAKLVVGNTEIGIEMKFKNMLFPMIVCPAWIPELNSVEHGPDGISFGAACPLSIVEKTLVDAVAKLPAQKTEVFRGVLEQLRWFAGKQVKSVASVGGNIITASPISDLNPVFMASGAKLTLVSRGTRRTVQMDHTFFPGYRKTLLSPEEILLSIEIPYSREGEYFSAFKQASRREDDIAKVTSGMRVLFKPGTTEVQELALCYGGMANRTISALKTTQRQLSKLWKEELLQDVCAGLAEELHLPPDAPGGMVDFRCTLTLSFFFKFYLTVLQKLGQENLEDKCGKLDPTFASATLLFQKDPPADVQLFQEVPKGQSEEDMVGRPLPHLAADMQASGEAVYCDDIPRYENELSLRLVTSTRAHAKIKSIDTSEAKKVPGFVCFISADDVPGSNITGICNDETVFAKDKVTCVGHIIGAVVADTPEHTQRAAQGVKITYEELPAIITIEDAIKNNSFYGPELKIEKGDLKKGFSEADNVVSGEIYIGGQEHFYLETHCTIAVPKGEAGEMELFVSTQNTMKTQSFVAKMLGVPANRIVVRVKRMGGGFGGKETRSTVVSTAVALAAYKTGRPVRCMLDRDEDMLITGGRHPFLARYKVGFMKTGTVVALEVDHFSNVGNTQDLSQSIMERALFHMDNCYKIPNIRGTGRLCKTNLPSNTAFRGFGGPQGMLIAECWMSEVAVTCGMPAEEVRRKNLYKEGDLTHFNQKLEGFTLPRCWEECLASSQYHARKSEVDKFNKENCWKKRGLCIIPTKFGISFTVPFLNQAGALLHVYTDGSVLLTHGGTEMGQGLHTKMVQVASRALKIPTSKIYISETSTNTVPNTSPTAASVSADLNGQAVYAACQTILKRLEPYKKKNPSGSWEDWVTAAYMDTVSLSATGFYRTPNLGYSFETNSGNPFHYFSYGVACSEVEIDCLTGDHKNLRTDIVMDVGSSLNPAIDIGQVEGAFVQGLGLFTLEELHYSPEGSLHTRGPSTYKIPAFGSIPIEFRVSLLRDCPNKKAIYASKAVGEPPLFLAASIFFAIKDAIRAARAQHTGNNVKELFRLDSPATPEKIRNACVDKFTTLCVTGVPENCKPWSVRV

Regarding Tocopherol, the “EC50, test method A” value in assay [1] is reported as 0.0067 % (w/v). The “EC50, test method D” value on Xanthin oxidase is listed as “no”.
A word on the EC50: it is the concentration that produces a half-maximal response. With `O=C1O[C@H]([C@@H](O)CO)C(O)=C1O` [Ascorbic acid], the “EC50, test method A” value in assay [1] is recorded as 0.0013 % (w/v). Besides, the “EC50, test method B” value in assay [2] was 0.2607% (w/v). Further, the “EC50, test method C” value in assay [3] is recorded as 0.9% (w/v). In addition, the EC50 on Xanthin oxidase (read-out: EC50, test method D (converted)) is 33.6 mM.
